Patent US4599325A, “Substituted tyrosyl alanine dipeptide amides” (G. D. Searle & Co., priority 1985, dated 1986)
Counter-ions that a name gives are not always drawn.

Legend:
opiate receptors = experiment: Opiate binding assay (displacement of 3H-Naloxone); design: species or system rat; conditions: for IC50: Table 1, 3H-Naloxone, rat brain membranes
Protocol: The test compounds were evaluated for their ability to displace the binding of ^3 H-Naloxone to opiate receptors isolate from rat brain. Male rats [COBS CD(SD)BR] obtained from Charles River Laboratories (Portage, MI) were sacrificed by cervical dislocation. A purified homogenate of receptor membranes was prepared from the brains according to the method described by Chang and Cuatrecasas. (K.-J. Chang and P. Cuatrecases. Multiple Opiate Receptors: Enkephalins And Morphine Bind To Receptors Of Different Specificity. J. Biol. Chem. 254, 2610-2618 (1979).) The brains were homogenized in 10 volumes of 0.32M sucrose and centrifuged twice at 6,000×g for 15 minutes. Following centrifugation of the supernatants at 40,000×g for 30 minutes, the pellets were allowed to swell, then centrifuged at 6,000 and 40,000×g. This process was repeated. The final pellet was resuspended in 2 volumes of 50 mM tris HCl (pH 7.4). The homogenate was assayed for protein content according to the method of Itzhaki and Gill. R. F. Itzhaki and D. M. Gill. A Micro-Biuret Method for Estimating Proteins. Anal. Biochem. 9, […] (1964).
The binding of the test compounds to the receptor membrane preparation was measured using a modification of the method of Pert and Snyder. C. B. Pert and S. H. Snyder. Properties of Opiate-Receptor Binding in Rat Brain. Proc. Natl. Acad. Sci. 70, 2243-2247 (1973). The receptor assay was run using 1 nM ^3 H-Naloxone and 2 ml of tissue homogenate (0.5 mg/ml protein concentration). Levorphanol (1×10^-5 M) was used as the displacer for non-specific binding. Both the displacer and the test compounds were added in 0.02 ml volumes. The assay was run in 0.05M tris HCl (pH 7.4) ±100 mM NaCl. Total assay volume was 2.03 ml.
Samples were incubated at 25° C. for 60 min., cooled on ice 5 min. and subsequently filtered over Whatman GF/C glass fiber filters with 2.4 ml washes of cold buffer. The filters were then solubilized in 1 ml of NCS at 50° C. for 1 hour. After solubilization, the pH was adjusted with 0.1 ml of glacial acetic acid, 10 ml of PCS was added and the samples were counted in a Nuclear Chicago Mark II liquid scintillation counter. This method was used for the following test compounds: Example 4, Example 5, Example 27, Example 28, Example 38, Example 39, and the prior art compound (4).
A modification of this method was used for the following test compounds: Example 16, Example 17, Example 21, Example 22, Example 24, Example 30, Example 31. In this modification, the total assay volume was adjusted to 1.0 ml. Samples were cooled on ice for 10 minutes and dried at 50° C. for 30 minutes, then 10 mls of PCS was added and the samples counted in a liquid scinitillation counter.
The IC50 values, the concentration of the test compounds which inhibited ^3 H-Naloxone specific binding to the opiate receptor by 50%, were obtained from log-probit plots of concentration-response curves. D. J. Finney. Probit Analysis. Cambridge University Press, London, 1947.

mu opiate receptor = biological target: T1, mu opiate receptor (Rattus norvegicus, UniProt P33535); experiment: Mu opiate receptor binding (3H-Dihydromorphine); conditions: Table 2; 3H-Dihydromorphine 0.2 nM, rat brain
T1 construct: The receptor membrane homogenate was prepared using rat brain; from tissue; host or cells: rat brain membrane homogenate
T1 sequence (P33535 whole entry): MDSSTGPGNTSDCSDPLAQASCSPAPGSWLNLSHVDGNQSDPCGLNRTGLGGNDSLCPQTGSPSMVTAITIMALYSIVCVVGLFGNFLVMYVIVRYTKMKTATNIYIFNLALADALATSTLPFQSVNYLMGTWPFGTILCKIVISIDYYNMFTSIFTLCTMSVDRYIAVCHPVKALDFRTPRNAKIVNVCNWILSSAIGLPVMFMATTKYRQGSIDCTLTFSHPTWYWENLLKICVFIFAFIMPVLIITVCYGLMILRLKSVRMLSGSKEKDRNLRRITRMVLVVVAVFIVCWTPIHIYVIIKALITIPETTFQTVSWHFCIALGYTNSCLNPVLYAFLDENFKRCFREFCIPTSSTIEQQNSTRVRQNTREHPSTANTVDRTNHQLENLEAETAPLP
Protocol: Several subtypes of opiate receptors have been identified. These multiple receptors are thought to mediate the different effects of opiates, e.g., mu receptors are believed to mediate the analgesic activity of opiates. Therefore, the relative affinities of the test compounds for the mu and the delta opiate receptors was determined. The receptor membrane homogenate was prepared using rat brain as previously described in this document. The binding assays for the mu and delta receptors were performed using a modification of the method described by Chang and Cuatrecasas. K.-J. Chang and P. Cuatrecasas. Multiple Opiate receptors: enkephalins and morphine bind to receptors of different specificity, J. Biol. Chem. 254, 2610-2618 (1979). The incubation mixtures contained 0.75 ml of homogenate (1 mg protein/ml) and 0.05 ml of ^3 H-Dihydromorphine (final concentration of 0.2 nM) or 0.05 ml ^3 H-(D)-Ala^2 -(D)-Leu^5 enkephalin (final concentration of 0.2 nM). Both the displacer, naloxone, and the test compounds were added in 0.1 ml volumes. Finally, […] tris-HCl buffer (pH 7.4 at 25° C.) was added to bring the total volume up to 1 ml. The mixture were then incubated 60 minutes at 25° C. before filtering.
The IC50 values, i.e., the concentration of the test compound that inhibited ligand specific binding to its receptor by 50%, were calculated using log-probit analysis, D. J. Finney. […]

mice = experiment: Hot plate test (intravenous administration); assay type: in vivo, mouse; conditions: 10 mg/kg i.v.
Protocol: Male albino inbred mice supplied by Charles River [CD-1 (ICR)BR] weighing between 20 and 30 grams were used. The mice were placed on a 55° C. hot plate 60, 40, and 20 minutes prior to drug administration and the latencies to the lick of a paw or to a jump were recorded. Mice not responding within 15 seconds were discarded from the study. The test compound or vehicle was then administered intravenously and the animals' response latencies on the hot plate were recorded again 10, 30 and 60 minutes later. The initial test dose was 10 mg/kg. Mice not responding within 30 seconds were removed from the hot plate to prevent tissue damage and assigned the cut-off value of 30 seconds. Elevation of the response latencies to greater than twice the median of the three pre-drug latency measurements was indicative of analgesia. For each time point, the data were expressed as the number of animals having analgesic response latencies out of the total number tested. The number of analgesic animals in the test compound-treated group was then compared with the number of analgesic animals in the vehicle-treated group at each time point using Fisher's Exact Probability Test. S. Siegel, Nonparametric Statistics for the Behavioral Sciences. McGraw-Hill, New York, pp. 96-104 (1956 ). […]

Row | Compound | IC50 (opiate receptors; hydrochloride) [µM] | affinity to the opiate receptor relative to the prior art compound (opiate receptors; greater affinity than prior art compound) | IC50 (mu opiate receptor) [µM] | Hot Plate (I.V.) 10 mg/kg: rating and animals with analgesic latencies / tested (mice) | IC50 (opiate receptors) [µM]
1 | Cc1cc(O)cc(C)c1C[C@H](N)C(=O)N[C@H](C)C(=O)NCCCc1ccccc1 [Example 5, 2,6-dimethyltyrosyl-N-(3-phenylpropyl)-D-alaninamide, hydrochloride] | 0.027 | tenfold | 0.0001 | Active 6/7 | –
2 | tyrosine-D-alanine-phenylpropylamide [Prior Art, reference compound] | – | – | 0.0088 | Inactive 0/10 | 0.43
